Reference: patent US20100092549A1, “Dosage Form Containing Two or More Active Pharmaceutical Ingredients in Different Physical Forms” (priority 2007, published 2010)
Structures can show the parent of a compound that is named as a salt.

Experiment: Related substance testing by HPLC on interaction samples after storage
Assay type: physicochemical
[1] = 40/75: incubator 40° C./75% RH for 6 days

Protocol: The APIs alone and two initial, conventional finished dosage forms were analysed under three different storage conditions, ie. cold room storage, kept in an oven at 60° C. for 7 days and stored in an incubator held at 40° C./75% RH for 6 days. The mixtures of one or both APIs with an excipient were analysed under two different storage conditions, ie. kept in an oven at 60° C. for 7 days and stored in an incubator held at 40° C./75% RH for 6 days.
The list of samples are as follows: • Fluoxetine HCl alone • Olanzapine alone • Fluoxetine HCl/Olanzapine Capsules • Fluoxetine HCl+Microcrystalline cellulose • Fluoxetine HCl+Pregelatinised maize starch • Fluoxetine HCl+Maize starch • Fluoxetine HCl+Magnesium stearate • Fluoxetine HCl+Olanzapine • Fluoxetine HCl+Olanzapine+Microcrystalline cellulose • Fluoxetine HCl+Olanzapine+Pregelatinised maize starch • Fluoxetine HCl+Olanzapine+Maize starch • Fluoxetine HCl+Olanzapine+Magnesium stearate • Olanzapine Tablets • Olanzapine+Lactose monohydrate • Olanzapine+Microcrystalline cellulose • Olanzapine+Maize starch • Olanzapine+Pregelatinised maize starch • Olanzapine+Crospovidone • Olanzapine+Magnesium stearate • Olanzapine+Opadry® II coating ingredients
The samples were analysed after the allotted period of time and the level of known and unknown related substances were determined by HPLC.

Impurity 1 (unknown related substance) [1]: 0.041
Impurity 2 (unknown related substance) [1]: 0.069
Impurity 1 (unknown related substance) (CR: cold room storage): 0.034
Impurity 2 (unknown related substance) (CR: cold room storage): 0.068
Impurity 1 (unknown related substance) (Oven: 60° C. for 7 days): 0.039
Impurity 2 (unknown related substance) (Oven: 60° C. for 7 days): 0.067
Compound: CNCCC(Oc1ccc(C(F)(F)F)cc1)c1ccccc1 (stereo not drawn) [Fluox API, Fluoxetine HCl]
